Assay results taken from patent US8354398B2, “Substituted isoxazole compounds” (Bristol-Myers Squibb Company, priority 2009, dated 2013).
Structures can show the parent of a compound that is named as a salt.

Tests used:
[1] = molecular target: T1, S1P1 (Homo sapiens, UniProt P21453); assay: S1P1 Binding Assay (33P-S1P ligand competition, membranes from CHO cells); set-up: expressed in transfected cells; host or cells: CHO cells; details: membranes of CHO cells expressing human S1P1; 0.03 nM 33P-S1P; 60 min room temperature
T1 sequence (P21453 whole entry): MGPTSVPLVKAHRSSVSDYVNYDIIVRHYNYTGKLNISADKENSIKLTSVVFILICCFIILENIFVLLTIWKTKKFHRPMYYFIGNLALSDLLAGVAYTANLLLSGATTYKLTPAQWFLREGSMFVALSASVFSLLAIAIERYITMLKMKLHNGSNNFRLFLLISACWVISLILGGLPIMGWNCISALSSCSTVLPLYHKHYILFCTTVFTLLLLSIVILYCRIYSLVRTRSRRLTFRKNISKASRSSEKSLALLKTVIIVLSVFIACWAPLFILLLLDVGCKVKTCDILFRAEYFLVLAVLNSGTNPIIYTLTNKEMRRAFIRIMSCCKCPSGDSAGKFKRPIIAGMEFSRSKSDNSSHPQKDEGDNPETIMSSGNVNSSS
Description: Membranes were prepared from CHO cells expressing human S1P1. Cells were dissociated in buffer containing 20 mM HEPES, pH 7.5, 50 mM NaCl, 2 mM EDTA and Protease Inhibitor cocktail (Roche), and disrupted on ice using the Polytron homogenizer. The homogenate was centrifuged at 20,000 rpm (48,000 g) and the supernatant was discarded. The membrane pellets were resuspended in buffer containing 50 mM HEPES, pH 7.5, 100 mM NaCl, 1 mM MgCl2, 2 mM EDTA and stored in aliquots at −80° C. after protein concentration determination.
Membranes (2 μg/well) and 0.03 nM final concentration of ^33P-S1P ligand (1 mCi/ml, American Radiolabeled Chemicals) were added to the compound plates. Binding was performed for 60 min at room temperature, terminated by collecting the membranes onto GF/B filter plates, and radioactivity was measured by TOPCOUNT®. The competition data of the test compounds over a range of concentrations was plotted as percentage inhibition of radioligand specific binding. The IC50 is defined as the concentration of competing ligand needed to reduce specific binding by 50%.
Compounds of the present invention and Comparative Compound A were tested in the S1P1 binding assay described hereinabove and the results rounded to two digits, shown in Table A were obtained. In some instances, the value is an average of multiple experiments where N is the number of experiments conducted that provided satisfactory dose response curves. When more than one batch of an example was tested, the value presented is from the batch which allowed a comparison of GTPγS S1P1 and GTPγS S1P3 in Method A (Data shown in Table B). Data was not averaged across different batches of an example compound.

[2] = molecular target: T2, S1P3 (Homo sapiens, UniProt Q99500); assay: Method B: Receptor [35S] GTPγS SPA Binding Assay, membranes from S1P3 transfected CHO cells; format: biochemical; set-up: expressed in transfected cells; host or cells: CHO cells; details: S1P3 transfected CHO cell membranes, NC = a satisfactory dose response curve was not obtained
Description: (§1) Membranes prepared from S1P1 or S1P3 transfected CHO cells (2 μg protein) were incubated in 96-well white plates (CORNING® 3693) with test compounds diluted in DMSO, in 50 μl of reaction mixture containing 7.5 μl WGA-PVT beads (20 mg/ml), and 5 μM GDP, 20 mM HEPES pH 7.4, 100 mM NaCl, 1 mM EDTA, 5 mM MgCl2, 10 μg/ml saponin, 0.1% BSA, and 1 μM leupeptin. The assay was initiated with the addition of 25 μl of 0.2 nM [^35S]-GTPγS (1250 Ci/mmol; NEN) in assay buffer. After 90 min incubation at room temperature, spin the plate at 1000 rpm for 5 min. The bound radionuclides were measured at TOPCOUNT®, expressed as % response relative to S1P (1 μM) activation. Data was analyzed using the four parameter logistic equation in Excel. The four parameters in the equation, Y=A+((B−A)/(1+((EC50/X)^D))), are described as following: A is the Y value (agonist activity) at the bottom plateau; B is the Y value at the top plateau; EC50 is the X value (agonist concentration) when the response is halfway between bottom and top; D is Hill coefficient. Curves were not generated for compounds having Ymax values were below 50%.
(§2) Compounds of the present invention and Comparative Compound A were tested in the Receptor [^35S] GTPγS Binding Assays (Method A) and Receptor [35S] In some instances, the value is an average of multiple experiments where N is the number of experiments conducted that provided satisfactory dose response curves. When more than one batch of an example was tested, the value presented is from a batch which allowed a comparison of GTPγS S1P1 and GTPγS S1P3 in which the most number of experiments were performed. Preferably, the same batch was examined in Method A and Method B. Data was not averaged across different batches of an example compound.
Target sequence in this assay (Q99500 whole entry, species assumed): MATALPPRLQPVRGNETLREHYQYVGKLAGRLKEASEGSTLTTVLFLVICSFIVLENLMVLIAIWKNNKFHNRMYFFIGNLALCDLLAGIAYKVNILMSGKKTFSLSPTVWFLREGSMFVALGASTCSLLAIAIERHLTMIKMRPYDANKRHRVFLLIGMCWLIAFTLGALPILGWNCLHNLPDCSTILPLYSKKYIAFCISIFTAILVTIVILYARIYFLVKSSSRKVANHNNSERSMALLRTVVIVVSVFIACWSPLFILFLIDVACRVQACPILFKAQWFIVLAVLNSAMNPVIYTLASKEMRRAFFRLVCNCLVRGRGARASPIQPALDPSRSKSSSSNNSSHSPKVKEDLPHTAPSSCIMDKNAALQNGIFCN

[3] = molecular target: T1, S1P1; assay: Method A: Receptor [35S] GTPγS Binding Assay, membranes from S1P1/CHO cells; format: biochemical; set-up: expressed in transfected cells; host or cells: S1P1/CHO cells; details: for EC50: Method A, S1P1/CHO cell membranes; for GTPγS S1P3/S1P1 (Method A): ratio of GTPγS S1P3 EC50 to GTPγS S1P1 EC50, Method A
Description: (§3) Compounds were loaded in a 384 Falcon v-bottom plate (0.5 μl/well in a 3-fold dilution). Membranes prepared from S1P1/CHO cells or EDG3-Ga15-bla HEK293T cells were added to the compound plate (40 μl/well, final protein […]) with MULTIDROP®. [^35S]GTP (1250 Ci/mmol, Perkin Elmer) was diluted in assay buffer: 20 mM HEPES, pH7.5, 10 mM MgCl2, 150 mM NaCl, 1 mM EGTA, 1 mM DTT, 10 μM GDP, 0.1% fatty acid free BSA, and 10 mg/ml Saponin to 0.4 nM. 40 μl of the [^35S] GTP solution was added to the compound plate with a final concentration of 0.2 nM. The reaction was kept at room temperature for 45 min. At the end of incubation, all the mixtures in the compound plate were transferred to a 384 well FB filter plates via GPCR robot system. The filter plate was washed with water 4 times by using the modified manifold Embla plate washer and dried at 60° C. for 45 min. 30 μl of MicroScint 20 scintillation fluid was added to each well for counting at Packard TOPCOUNT®. EC50 is defined as the agonist concentration that corresponds to 50% of the Ymax (maximal response) obtained for each individual compound tested.
as §2

[4] = molecular target: T1, S1P1; assay: Method B: Receptor [35S] GTPγS SPA Binding Assay, membranes from S1P1 transfected CHO cells; format: biochemical; set-up: expressed in transfected cells; host or cells: S1P1/CHO cells; details: for EC50: Method B SPA, S1P1 transfected CHO cell membranes, NC = a satisfactory dose response curve was not obtained; for GTPγS S1P3/S1P1 (Method B): ratio of GTPγS S1P3 EC50 to GTPγS S1P1 EC50, Method B
Description: as §1, §2

[5] = molecular target: T2, S1P3; assay: Method A: Receptor [35S] GTPγS Binding Assay, membranes from EDG3-Ga15-bla HEK293T cells; format: biochemical; set-up: expressed in transfected cells; host or cells: EDG3-Ga15-bla HEK293T cells; details: EDG3-Ga15-bla HEK293T cell membranes
Description: as §3, §2
Target sequence in this assay (Q99500 whole entry): as the sequence (Q99500 whole entry, species assumed) above

IC50 [1] [nM] | EC50 [2] [nM] | EC50 [3] [nM] | GTPγS S1P3/S1P1 (Method A) [3] | EC50 [4] [nM] | GTPγS S1P3/S1P1 (Method B) [4] | EC50 [5] [nM] | Structure (SMILES)
0.078 | 1600 |  |  | 0.15 | 11,000 | 3600 | O=C(O)C1CN(Cc2ccc(-c3noc(-c4onc(-c5ccccc5)c4C(F)F)n3)cc2)C1 [Example 12, 1-(4-(5-(4-(Difluoromethyl)-3-phenylisoxazol-5-yl)-1,2,4-oxadiazol-3-yl)benzyl)azetidine-3-carboxylic acid, 2,2,2-trifluoroacetic acid salt]
0.063 | 13.5 | 0.73 | 27 | 0.12 | 112 | 20 | O=C(O)C1CN(Cc2ccc(-c3noc(-c4noc(-c5ccccc5)c4-c4ccccc4)n3)cc2)C1 [Example 17, 1-(4-(5-(4,5-diphenylisoxazol-3-yl)-1,2,4-oxadiazol-3-yl)benzyl)azetidine-3-carboxylic acid, 2,2,2-trifluoroacetic acid salt]
0.14 | 21 | 1 |  | 0.015 | 1,400 |  | CCCc1c(-c2nc(-c3ccc(CN4CC(C(=O)O)C4)cc3)no2)noc1CC(C)C [Example 18, 1-(4-(5-(5-Isobutyl-4-propylisoxazol-3-yl)-1,2,4-oxadiazol-3-yl)benzyl)azetidine-3-carboxylic acid, TFA]
0.7 |  | 150 | 35 | 1.2 |  | 5200 | CNC(=O)c1c(-c2ccccc2)noc1-c1nc(-c2ccc(CN3CC(C(=O)O)C3)cc2)no1 [Example 14, 1-(4-(5-(4-(Methylcarbamoyl)-3-phenylisoxazol-5-yl)-1,2,4-oxadiazol-3-yl)benzyl)azetidine-3-carboxylic acid, 2,2,2-trifluoroacetic acid salt]

Further lines, the compound ahead of its results:

Structure (SMILES) | IC50 [1] [nM] | EC50 [2] [nM] | EC50 [3] [nM] | GTPγS S1P3/S1P1 (Method A) [3] | EC50 [4] [nM] | GTPγS S1P3/S1P1 (Method B) [4] | EC50 [5] [nM]
CC(F)(F)c1c(-c2nc(-c3ccc(CN4CC(C(=O)O)C4)cc3)no2)noc1-c1ccccc1 [Example 9, 1-(4-(5-(4-(1,1-Difluoroethyl)-5-phenylisoxazol-3-yl)-1,2,4-oxadiazol-3-yl)benzyl)azetidine-3-carboxylic acid, 2,2,2-trifluoroacetic acid salt] | 0.14 | 910 | 3.1 | 810 | 0.14 | 6,500 | 2500
CCCc1c(-c2ccccc2)noc1-c1nc(-c2ccc(CN3CC(C(=O)O)C3)cc2)no1 [Example 11, 1-(4-(5-(3-Phenyl-4-propylisoxazol-5-yl)-1,2,4-oxadiazol-3-yl)benzyl)azetidine-3-carboxylic acid, 2,2,2-trifluoroacetic acid salt] | 0.13 | 50 | 0.47 |  | 0.017 | 2,900 | 
O=C(O)C1CN(Cc2ccc(-c3noc(-c4cc(-c5ccccc5)c(C(F)(F)F)s4)n3)cc2)C1 [Comp. A, 1-(4-(5-(4-Phenyl-5-(trifluoromethyl)thiophen-2-yl)-1,2,4-oxadiazol-3-yl)benzyl)azetidine-3-carboxylic acid, reference compound] | 2.5 | 20 | 84 | 1.2 | 0.25 | 78 | 97
CC(C)Cc1c(-c2nc(-c3ccc(CN4CC(C(=O)O)C4)cc3)no2)noc1-c1ccccc1 [Example 4, 1-(4-(5-(4-Isobutyl-5-phenylisoxazol-3-yl)-1,2,4-oxadiazol-3-yl)benzyl)-azetidine-3-carboxylic acid] | 0.17 |  | 0.7 | 670 | 0.58 |  | 470
CC(C)(C)c1c(-c2nc(-c3ccc(CN4CC(C(=O)O)C4)cc3)no2)noc1-c1ccccc1 [Example 7, 1-(4-(5-(4-tert-Butyl-5-phenylisoxazol-3-yl)-1,2,4-oxadiazol-3-yl)benzyl)-azetidine-3-carboxylic acid, 2-2-2-trifluoroacetic acid salt] | 0.58 | 8100 | 6.6 | 560 | 1.5 | 5,400 | 3700
CCCCc1c(-c2nc(-c3ccc(CN4CC(C(=O)O)C4)cc3)no2)noc1-c1ccccc1 [Example 3, 1-(4-(5-(4-Butyl-5-phenylisoxazol-3-yl)-1,2,4-oxadiazol-3-yl)benzyl)-azetidine-3-carboxylic acid] | 0.065 |  | 0.26 | 1,300 | 0.16 |  | 330
